Reference: patent US5112846A, “N-hydroxyamide, N-hydroxythioamide, hydroxyurea, and N-hydroxythiourea derivatives of selected nsaids as antiinflammatory agents” (Warner-Lambert Company, priority 1990, dated 1992)
pIC50: −log10 of the molar value. Read-outs that look alike come from different tables or passages of the source. Each block holds one compound with its values, some of them ahead of it.

What was measured:
Cyclooxygenase = molecular target: T1, Cyclooxygenase (Rattus norvegicus, UniProt Q63921); assay: ARBC whole cell cyclooxygenase assay (PGF2α formation in RBL-1 cells, A23187 stimulated); assay type: cell-based; conditions: for pIC50: read-out: ARBC IC50 (inhibition of PGF2α formation); for inhibition at 32 µM: Table 3, read-out: ARBC % inhibition (N @ 32)
T1 construct: host or cells: RBL-1 rat basophilic leukemia cells
T1 sequence (Q63921 27-602): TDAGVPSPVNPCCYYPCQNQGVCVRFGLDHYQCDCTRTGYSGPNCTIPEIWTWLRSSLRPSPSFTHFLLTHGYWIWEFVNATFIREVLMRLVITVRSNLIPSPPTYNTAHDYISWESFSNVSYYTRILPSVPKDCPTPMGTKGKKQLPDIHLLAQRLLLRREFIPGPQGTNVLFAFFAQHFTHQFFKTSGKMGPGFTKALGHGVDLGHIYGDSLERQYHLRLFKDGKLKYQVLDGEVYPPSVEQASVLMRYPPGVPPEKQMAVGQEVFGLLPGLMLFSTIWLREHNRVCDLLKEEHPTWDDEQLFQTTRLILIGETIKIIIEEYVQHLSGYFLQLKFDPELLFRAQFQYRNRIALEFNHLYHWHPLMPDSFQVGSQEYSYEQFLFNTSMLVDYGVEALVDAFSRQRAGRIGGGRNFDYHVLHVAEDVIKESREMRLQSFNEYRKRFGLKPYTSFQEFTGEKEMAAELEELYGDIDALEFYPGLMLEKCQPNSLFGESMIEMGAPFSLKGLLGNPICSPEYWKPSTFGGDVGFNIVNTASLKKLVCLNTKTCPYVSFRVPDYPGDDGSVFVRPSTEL
Experimental: (§1) ARBL/ARBC Whole Cell 5-Lipoxygenase and Cyclooxygenase Assays
(§2) The rat basophilic leukemia cell line (RBL-1) was obtained from the American Type Culture Collection (Rockville, MD).
(§3) Radioimmunoassay (RIA) kits of LTB4 and PGF2α were obtained from Amersham (Arlington Heights, IL) and Seragen (Boston, MA), respectively.
(§4) RBL-1 cells are grown in suspension culture in Eagle's minimum essential medium supplemented with 12% fetal bovine serum at 37° C. in an incubator supplied with air-5% carbon dioxide. Cells are harvested by centrifugation. They are washed with cold phosphate buffered saline pH 7.4 (PBS; NaCl, 7.1 g; Na2 HPO4, 1.15 g; KH2 PO4, 0.2 g; and KCl, 0.2 g/l). Cells are finally suspended in PBS containing 1.0 mM calcium at a density of 2×10^6 cells/ml. Cells are incubated with and without test agent (in DMSO) (1% DMSO is without effect on arachidonic acid metabolism) for ten minutes at room temperature. Calcium ionophore A23187 (5 μM) is added and cells are incubated for seven minutes at 37° C. The reaction is stopped by chilling the tubes on ice for ten minutes. Cells are separated by centrifugation and the supernatant is stored at -20° C. Aliquots (100 μl) are analyzed for LTB4 and PGF2α using radioimmunoassay kits as provided by the supplier.
(§5) Tables 1-4 contain biochemical data obtained from this whole cell assay either as IC50 s which are calculated as the amount of test compound causing 50% inhibition of LTB4 or PGF2α formation or % inhibition of LTB4 or PGF2α at the indicated amount expressed as μM.

5-Lipoxygenase = molecular target: T2, 5-Lipoxygenase (Rattus norvegicus, UniProt P12527); assay: ARBL whole cell 5-lipoxygenase assay (LTB4 formation in RBL-1 cells, A23187 stimulated); assay type: cell-based; conditions: for pIC50: read-out: ARBL IC50 (inhibition of LTB4 formation)
T2 construct: host or cells: RBL-1 rat basophilic leukemia cells
T2 sequence (P12527 1-673): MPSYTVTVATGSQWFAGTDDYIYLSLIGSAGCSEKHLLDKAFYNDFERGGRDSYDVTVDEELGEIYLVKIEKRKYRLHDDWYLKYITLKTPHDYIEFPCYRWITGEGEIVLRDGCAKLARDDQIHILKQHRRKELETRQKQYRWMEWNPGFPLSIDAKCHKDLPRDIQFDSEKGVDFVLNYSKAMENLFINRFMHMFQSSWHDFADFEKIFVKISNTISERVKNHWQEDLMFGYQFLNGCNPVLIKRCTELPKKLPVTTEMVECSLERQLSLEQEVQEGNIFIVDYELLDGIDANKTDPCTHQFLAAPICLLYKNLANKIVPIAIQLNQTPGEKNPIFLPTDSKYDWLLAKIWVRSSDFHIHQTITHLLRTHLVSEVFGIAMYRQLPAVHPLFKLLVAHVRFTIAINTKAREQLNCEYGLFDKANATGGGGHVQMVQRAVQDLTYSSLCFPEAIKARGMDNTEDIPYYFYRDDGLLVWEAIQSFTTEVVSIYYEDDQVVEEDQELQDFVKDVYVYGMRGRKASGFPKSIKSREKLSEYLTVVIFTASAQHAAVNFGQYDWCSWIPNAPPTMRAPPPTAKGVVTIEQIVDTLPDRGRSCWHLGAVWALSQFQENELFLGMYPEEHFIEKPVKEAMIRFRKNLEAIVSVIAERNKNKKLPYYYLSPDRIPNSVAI
Experimental: as §1, §2, §3, §4, §5

[1] = RBL-1 cells, read-out: ARBC % inhibition of PGF2α
[2] = RBL-1 cells, read-out: ARBL % inhibition of LTB4
[3] = RBL-1, Table 1, read-out: ARBC % inhibition (N)
[4] = RBL-1, Table 2, read-out: ARBC % inhibition (N)

inhibition at 16 µM (Cyclooxygenase; [1]): 76%
inhibition at 16 µM (5-Lipoxygenase; [2]): 97%
SMILES: ONCc1ccc2c(c1)Cc1ccccc1-2 [Example 1, N-Hydroxy-9H-fluorene-2-methanamine]

inhibition at 16 µM (Cyclooxygenase; [3]): < 40%
inhibition at 16 µM (5-Lipoxygenase; [2]): 96%
SMILES: CCOC(=O)C(=O)N(O)Cc1ccc2c(c1)Cc1ccccc1-2 [Example 2, (9H-Fluoren-2-ylmethyl)hydroxyamino-oxo-acetic acid, ethyl ester]

inhibition at 16 µM (Cyclooxygenase; [3]): < 40%
inhibition at 16 µM (5-Lipoxygenase; RBL-1, Table 1, read-out: ARBL % inhibition (N)): < 40%
SMILES: O=C(O)C(=O)N(O)Cc1ccc2c(c1)Cc1ccccc1-2 [Example 3, (9H-Fluoren-2-ylmethyl)hydroxyamino-oxo-acetic acid]

pIC50 (Cyclooxygenase; RBL-1 cells): 4.92
inhibition at 16 µM (5-Lipoxygenase; [2]): 100%
SMILES: CC(=O)N(O)Cc1ccc2c(c1)Cc1ccccc1-2 [Example 4, N-(9H-Fluoren-2-ylmethyl)-N-hydroxy-acetamide]

inhibition at 16 µM (Cyclooxygenase; [3]): < 40%
inhibition at 16 µM (5-Lipoxygenase; [2]): 99%
SMILES: CC(C)C(=O)N(O)Cc1ccc2c(c1)Cc1ccccc1-2 [Example 5, N-(9H-Fluoren-2-ylmethyl)-N-hydroxy-2-methyl-propanamide]

inhibition at 16 µM (Cyclooxygenase; [3]): < 40%
inhibition at 16 µM (5-Lipoxygenase; [2]): 100%
SMILES: CNC(=O)N(O)Cc1ccc2c(c1)Cc1ccccc1-2 [Example 6, N-(9H-Fluoren-2-ylmethyl)-N-hydroxy-N'-methylurea]

inhibition at 16 µM (Cyclooxygenase; [1]): 89%
inhibition at 16 µM (5-Lipoxygenase; [2]): 100%
SMILES: CC(NO)c1ccc2c(c1)Cc1ccccc1-2 (stereo not drawn) [Example 7, N-Hydroxy-α-methyl-9H-fluorene-2-methanamine]

inhibition at 16 µM (Cyclooxygenase; [3]): < 40%
pIC50 (5-Lipoxygenase; RBL-1 cells): 6.04
SMILES: CNC(=O)N(O)C(C)c1ccc2c(c1)Cc1ccccc1-2 (stereo not shown) [Example 8, N-(1-(9H-Fluoren-2-yl)ethyl)-N-hydroxy-N'-methylurea]

inhibition at 16 µM (Cyclooxygenase; [1]): 49%
inhibition at 16 µM (5-Lipoxygenase; [2]): 100%
SMILES: CCNC(=O)N(O)C(C)c1ccc2c(c1)Cc1ccccc1-2 (stereo not shown) [Example 9, N'-Ethyl-N-(1-(9H-fluoren-2-yl)ethyl)-N-hydroxyurea]

inhibition at 16 µM (Cyclooxygenase; [1]): 59%
inhibition at 16 µM (5-Lipoxygenase; [2]): 100%
SMILES: CNC(=S)N(O)C(C)c1ccc2c(c1)Cc1ccccc1-2 (stereo not shown) [Example 10, N-(1-(9H-Fluoren-2-yl)ethyl)-N-hydroxy-N'-methylthiourea]

inhibition at 16 µM (Cyclooxygenase; [3]): < 40%
pIC50 (5-Lipoxygenase; RBL-1 cells): 6.12
SMILES: CC(=O)N(O)C(C)c1ccc2c(c1)Cc1ccccc1-2 (stereo not shown) [Example 11, N-(1-(9H-Fluoren-2-yl)ethyl)-N-hydroxy-acetamide]

inhibition at 16 µM (Cyclooxygenase; [1]): 79%
inhibition at 16 µM (5-Lipoxygenase; [2]): 95%
SMILES: CCOC(=O)N(O)C(C)c1ccc2c(c1)Cc1ccccc1-2 (stereo not drawn) [Example 12, N-Hydroxy-alpha-methyl-9H-fluorene-2-methanamine carbamic acid, ethyl ester]

inhibition at 16 µM (Cyclooxygenase; [3]): < 40%
inhibition at 16 µM (5-Lipoxygenase; [2]): 90%
SMILES: CC(C)C(=O)N(O)C(C)c1ccc2c(c1)Cc1ccccc1-2 (stereo not shown) [Example 13]

inhibition at 16 µM (Cyclooxygenase; [3]): < 40%
inhibition at 0.25 µM (5-Lipoxygenase; at 0.25 μM, RBL-1 cells): 56%
SMILES: CCNC(=S)N(O)C(C)c1ccc2c(c1)Cc1ccccc1-2 (stereo not shown) [Example 14, N-(1-(9H-Fluoren-2-yl)ethyl)-N-hydroxy-N'-ethylthiourea]

pIC50 (Cyclooxygenase; RBL-1 cells): 5.24
inhibition at 16 µM (5-Lipoxygenase; [2]): 100%
SMILES: CC(C)C(=O)N(O)Cc1ccc2c(c1)OCc1ccccc1C2=O [Example 17, N[(6,11-Dihydro-11-oxodibenz[b,el]oxepin-3-yl)methyl]N-hydroxy-2-methylpropanamide]

inhibition at 16 µM (Cyclooxygenase; [4]): < 40%
pIC50 (5-Lipoxygenase; RBL-1 cells): 6.08
SMILES: CC(=O)N(O)Cc1ccc2c(c1)OCc1ccccc1C2=O [Example 18, N-[(6,11-Dihydro-11-oxodibenz[b,el]oxepin-3-yl)methyl]-N-hydroxyacetamide]

inhibition at 16 µM (Cyclooxygenase; [4]): < 40%
inhibition at 16 µM (5-Lipoxygenase; [2]): 84%
SMILES: CCOC(=O)C(=O)N(O)Cc1ccc2c(c1)OCc1ccccc1C2=O [Example 19, Ethyl[[(6,11-Dihydro-11-oxodibenz[b,e]oxepin-3-yl)methyl]hydroxyamino]oxoacetate]

inhibition at 16 µM (Cyclooxygenase; [4]): < 40%
pIC50 (5-Lipoxygenase; RBL-1 cells): 6.29
SMILES: CNC(=O)N(O)Cc1ccc2c(c1)OCc1ccccc1C2=O [Example 20, N-[(6,11-Dihydro-11-oxodibenz[b,e]oxepin-3-yl)methyl]-N-hydroxy-N'-methylurea]

pIC50 (Cyclooxygenase; RBL-1 cells): 4.82
pIC50 (5-Lipoxygenase; RBL-1 cells): 6.29
SMILES: CC(=O)N(O)Cc1ccccc1Nc1cccc(C)c1C [Example 47]

inhibition at 32 µM (Cyclooxygenase; RBL-1): < 40%
pIC50 (5-Lipoxygenase; RBL-1 cells): 5.89
SMILES: CC(=O)N(O)Cc1ccccc1Nc1c(Cl)cccc1Cl [Example 48, N-[[(2,6-Dichlorophenyl)amino]phenyl]methyl-N-hydroxyacetamide]

inhibition at 32 µM (Cyclooxygenase; RBL-1): < 40%
pIC50 (5-Lipoxygenase; RBL-1 cells): 5.74
SMILES: CC(=O)N(O)C(C)c1ccccc1Nc1c(Cl)ccc(C)c1Cl (stereo not shown) [Example 53, N-[1-[2-[(2,6-dichloro-3-methylphenyl)amino]phenyl]ethyl]-N-hydroxyacetamide]

pIC50 (Cyclooxygenase; RBL-1 cells): 4.82
SMILES: COc1ccc2c(c1)c(CN(O)C(C)=O)c(C)n2C(=O)c1ccc(Cl)cc1 [Example 63, N-[[1-(4-Chlorobenzoyl)-5-methoxy-2-methyl-1H-indole-3-yl]methyl]-N-hydroxyacetamide]

inhibition at 16 µM (5-Lipoxygenase; RBL-1, Table 4, read-out: ARBL % inhibition (N @ 16)): < 40%
SMILES: COc1ccc2c(c1)c(CN(O)C(=O)CCC(=O)O)c(C)n2C(=O)c1ccc(Cl)cc1 [Example 66, 4-[[[1-(4-Chlorobenzoyl)-5-methoxy-2-methyl-1H-indol-3-yl]methyl]hydroxyamino]-4-oxo-butanoic acid]

pIC50 (Cyclooxygenase; RBL-1 cells): 4.80
SMILES: COC(=O)N(O)Cc1c(C)n(C(=O)c2ccc(Cl)cc2)c2ccc(OC)cc12 [Example 67, [[1-(4-Chlorobenzoyl)-5-methoxy-2-methyl-1H-indol-3-yl]methyl]hydroxycarbamic acid, methyl ester]

inhibition at 16 µM (5-Lipoxygenase; [2]): 98%
SMILES: COc1ccc2c(c1)c(CN(O)C(N)=O)c(C)n2C(=O)c1ccc(Cl)cc1 [Example 68, N-(Aminocarbonyl)-1-(4-chlorobenzoyl)-N-hydroxy-5-methoxy-2-methyl-1H-indole-3-methanamine]

pIC50 (5-Lipoxygenase; RBL-1 cells): 5.60
SMILES: CNC(=O)N(O)Cc1c(C)n(C(=O)c2ccc(Cl)cc2)c2ccc(OC)cc12 [Example 69, 1-(4-Chlorobenzoyl)-N-hydroxy-5-methoxy-2-methyl-N-[(methylamino)carbonyl]-1H-indole-3-methanamine]

inhibition at 16 µM (5-Lipoxygenase; [2]): 98%
SMILES: CCOC(=O)NC(=O)N(O)Cc1c(C)n(C(=O)c2ccc(Cl)cc2)c2ccc(OC)cc12 [Example 72, [[[[1-(4-Chlorobenzoyl)-5-methoxy-2-methyl-1H-indol-3-yl]methyl]hydroxyamino]carbonyl]carbamic acid, ethyl ester]

inhibition at 16 µM (5-Lipoxygenase; [2]): 100%
SMILES: CCOC(=O)CNC(=O)N(O)Cc1c(C)n(C(=O)c2ccc(Cl)cc2)c2ccc(OC)cc12 [Example 73, N-[[[[1-(4-Chlorobenzoyl)-5-methoxy-2-methyl-1H-indol-3-yl]methyl]hydroxyamino]carbonyl]glycine, ethyl ester]
